Patent US20060228694A1, “Methods to individualize combination therapy” (priority 2003, published 2006)

System: A549 cells
Assay: In vitro cytotoxicity screening with median-effect (combination index) analysis of irinotecan and carboplatin
Format: cell-based
Details: single drug versus irinotecan plus carboplatin combination
Method: As shown, therapeutic agents A and B are tested individually and together at two different ratios for their ability to cause cell death or cell stasis. In these experiments cell death or stasis was assessed using the MTT (3-[4,5-dimethylthiazol-2-yl]-2,5-diphenyltetrazolium) assay described below. Briefly, the dye MTT is reduced by living cells, producing a measurable change in optical density that is correlated to cell viability.
Correlations between the concentration of therapeutic agents A and B, and the two different combination ratios (Y:Z and X:Y) are plotted against cytotoxicity. Cytotoxicity is calculated as a percentage of surviving cells based on the survival of untreated control cells. […] Once this correlation has been established, the cell survival or fraction affected (fa) is used as a surrogate for concentration in calculating the CI.
The Chou-Talalay median-effect method is preferred. The analysis utilizes an equation wherein the dose that causes a particular effect, fa, is given by: D=Dm[fa/(1−fa)]^1/m in which D is the dose of the drug used, fa is the fraction of cells affected by that dose, Dm is the dose for median effect signifying the potency and m is a coefficient representing the shape of the dose-effect curve (m is 1 for first order reactions). […]

Row | SMILES | Concentration required to achieve a 90% cell kill on its own compared with the concentration required when combined at a non-antagonistic ratio
1 | N.N.O=C([O-])C1(C(=O)[O-])CCC1.[Pt+2] [carboplatin] | significantly higher
2 | CCc1c2c(nc3ccc(OC(=O)N4CCC(N5CCCCC5)CC4)cc13)-c1cc3c(c(=O)n1C2)COC(=O)[C@]3(O)CC [irinotecan] | significantly higher
